# How the values were obtained:
# [1] = tested on: 355 B-cell lymphoma cell line; assay: 355 B-cell lymphoma survival model; assay type: in vivo; conditions: 0.1 mg/mouse i.p. on day 0, 2, 4, 8, 12, 16, 20, 24, and 28
# Method: FIG. 4. is a graph showing that lymphoma stromal cells (LSCs) promote lymphoma development in a NO-dependent manner. 355 B-cell lymphoma cell line (C3H-gld/gld background, 0.5×10^6 cells/mouse) was co-injected with gld/gld mice-derived lymphoma stromal cells (C3H background, P5, 0.25×10^6 cells/mouse) by tail-vein i.v. on day 0.1400 W (NOS inhibitor, 0.1 mg/mouse) was injected on day 0, 2, 4, 8, 12, 16, 20, 24, and 28 by i.p. Mice survival was recorded when mice were moribund.
# To examine the effect of lymphoma stromal cells on tumor growth, 355 B-cell lymphoma cell line (C3H-gld/gld background, 0.5×10^6 cells/mouse) was co-injected with gld/gld mice-derived lymphoma stromal cells (C3H background, P5, 0.25×10^6 cells/mouse).
# splenocytes = assay: Anti-CD3-activated splenocyte proliferation in co-culture with MSCs; assay type: cell-based, mouse
# Method: FIGS. 9A, 9B, 9C, 9D, 9E, 9F and 9G. […] Cloned MSCs were first treated with the indicated combinations of recombinant cytokines IFNγ, TNFα, IL-17A (2 ng/ml each) for 12 hr, then cocultured with CD4^+ T cell blasts at a 1:20 ratio (MSC:T cells), and proliferation was assessed by 3H-thymidine incorporation after an additional 12 hr. (FIG. 9B). The mRNA expression of IL-17 receptor family members in MSCs or Raw 264.7 (Macrophages) were examined by RT-PCR. NC: No RT. (FIG. 9C). Surface expression of IL-17RA was detected by immunofluoresence or flow cytometry in cloned MSCs. (FIGS. 9D and 9E). MSCs were first treated with IFNγ and TNFα with or without IL-17A (10 ng/ml), IFNγ and TNFα were supplemented at different cytokine concentrations, for 12 hr, and then cocultured with CD4^+ T cell blasts (FIG. 9D) or T cell hybridoma A1.1 cells (FIG. 9E) at a ratio of 1:20 for 12 hr. T cell proliferation was measured by 3H-Tdr incorporation. (FIG. 9F). MSCs were first treated with IFNγ and TNFα (2 ng/ml) with graded concentrations of IL-17A, for 12 hr, and then cocultured with T cell hybridoma A1.1 cells at a ratio of 1:10 for 12 hr. T cell proliferation was measured by 3H-thymidine incorporation. (FIG. 9G). MSCs were cocultured with fresh C57BL/6 splenocytes plus anti-CD3, anti-CD28, and antibodies against IL-17A, at a 1:20 or 1:40 ratio (MSCs:splenocytes), for 48 hr, and then cell proliferation was assessed by 3H-thymidine incorporation. Proliferation values represent means±SEM of three wells from a representative of three experiments.
# To examine the possibility that cytokines induce the immunosuppressive capacity of MSCs, these culture conditions were reproduced by combining MSCs and fresh splenocytes at graded ratios in the presence of anti-CD3. […] The immunosuppressive capacity of MSC clones generated from different mouse strains was also examined.
# To identify the mechanism through which immunosuppression by cytokine-exposed MSCs is effected, the response of anti-CD3-activated splenocytes co-cultured with MSCs (1:20, MSC:splenocytes) in a […] system was examined in various configurations.
# Nitric oxide (NO) at high concentrations is known to inhibit T cell responses. It diffuses quickly from its source, but the concentration of the active form drops off within about 100 μm.
# Proliferation assay—To assay T cell proliferation, 0.5 μCi of 3H-thymidine was added to each well of 96-well plates 6 hr before termination of the cultures by freezing. Plates were then thawed, cells were harvested, and incorporated 3H-Tdr was assessed with a Wallac Microbeta scintillation counter (Perkin-Elmer, Waltham, MA).
# iNOS = iNOS protein and NO production in MSCs with type I IFN or FGF-2; assay type: cell-based, mouse; conditions: induced by IFN γ+TNF α or IFN γ+IL-β
# From the text: FIGS. 17A, 17B, 17C and 17D. Type I interferons and FGF-2 down-regulate the immunosuppressive effect of MSCs through attenuation NO production. […] (FIG. 17C) FGF-2 (FGF B) inhibited the NO production which was induced by IFN γ+TNF α or IFN γ+IL-β in MSCs, reflected by nitrate content in the culture supernatants.
Molecule,effect on stromal cell-enhanced mortality [1],splenocyte proliferation in MSC co-culture with iNOS inhibitor (splenocytes; MSCs + splenocytes + anti-CD3),MSC-mediated immunosuppression in MSC+splenocyte+anti-CD3 system (splenocytes),NO production in MSCs (nitrate content in culture supernatants) (iNOS)
CC(=N)NCc1cccc(CN)c1 [1400 W],significantly reverted the effect,same effect,–,–
"FGF-2: fibroblast growth factor (protein, UniProt P15655 10-154, looked up) Fibroblast growth factor 2: PALPEDGGAAFPPGHFKDPKRLYCKNGGFFLRIHPDGRVDGVREKSDPHVKLQLQAEERGVVSIKGVCANRYLAMKEDGRLLASKCVTEECFFFERLESNNYNTYRSRKYSSWYVALKRTGQYKLGSKTGPGQKAILFLPMSAKS",–,–,significantly reduced,inhibited

# — patent US12156889B2, “Methods of administering mesenchymal stem cells activated by cytokines for enhancing immunosuppression” (Rutgers, The State University of New Jersey, priority 2012, dated 2024)
